The numbers were not newly measured in patent US20040014215A1, “Synchronised arabidopsis cell suspensions and uses thereof” (priority 2000, published 2004), which cites them from elsewhere.

For data set [1], the system named is Arabidopsis cell suspension cultures. The note with it: low concentration of cycloheximide, release by washing; cited from earlier work.
The test system of a further data set is cell cycle. The note with it: phase of the cell cycle at which cells are arrested; cited from earlier work.
Data set [2] has as its system plant cells derived from a petunia protoplast culture. The note with it: cited from earlier work.
A further data set has as its system tobacco BY-2 cell line. The note with it: BY-2 pre-synchronised with aphidicolin, then propyzamide for a few hours and removal; cited from earlier work.
Data set [3] deals with purified CDK/cyclin complexes. Conditions: cited from earlier work.

For the compound `C[C@@H]1C[C@@H]([C@H](O)CC2CC(=O)NC(=O)C2)C(=O)[C@@H](C)C1` [cycloheximide], the peak mitotic index in data set [1] was 9%.

As to `NC(=O)NO` [hydroxyurea], the cell cycle arrest result in the data set on cell cycle is given as “G1/S phase boundary”.

In the case of `NC(Cn1ccc(=O)c(O)c1)C(=O)O` (stereo not drawn) [mimosine], the cell cycle block entry in data set [2] is “reversible block during G1 and in early/mid S-phase”. The cell cycle arrest result with cell cycle is recorded as “early S”.

On to `C#CC(C)(C)NC(=O)c1cc(Cl)cc(Cl)c1` [propyzamide], for which the mitotic index with tobacco BY-2 cell line is 80-90%.

On to `CC[C@H](CO)Nc1nc(NCc2ccccc2)c2ncn(C(C)C)c2n1` [roscovitine], for which the “histone H1 kinase activity” value in data set [3] was “inhibit the histone H1 kinase activity”.
